From ChEMBL document CHEMBL5113372, “Paradigm shift of "classical" HDAC inhibitors to "hybrid" HDAC inhibitors in therapeutic interventions” (Eur J Med Chem, 2021)
One block for each molecule: values may come before it.

Assays:
A549 [1] = experiment: Antitumor activity against human A549 cells xenografted in BALB/c mouse assessed as tumor growth inhibition measured every 2 days for 2 to 3 weeks by caliper method relative to control; assay type: functional; details: time 2 day
A549 [2] = experiment: Antiproliferative activity against human A549 cells assessed as inhibition of cell viability treated for 12 to 48 hrs by MTT assay; assay type: functional, cell-based
LNCaP = experiment: Antiproliferative activity against human LNCaP cells expressing androgen receptor assessed as inhibition of cell viability; assay type: functional, cell-based
DU-145 = experiment: Antiproliferative activity against human DU-145 assessed as inhibition of cell viability incubated for 72 hrs by MTT/MTS assay; assay type: functional, cell-based; details: DU-145, 72 h
Androgen receptor = Androgen receptor (Rattus norvegicus, UniProt P15207); experiment: Displacement of [3H]-mibolerone from rat androgen receptor incubated for 4 hrs by radioligand binding assay
SK-MEL-5 = experiment: Antitumor activity against human SK-MEL-5 cells xenografted in BALB/c mouse assessed as reduction in tumor volume at 30 mg/kg, ip qd measured after 4 weeks by caliper method relative to control; assay type: functional; set-up: scale not given: the % may be the effect or the level left
[3] = Antiproliferative activity against human WM983B cells assessed as cell growth inhibition; assay type: functional, cell-based
Histone deacetylase 1 [4] = biological target: T1, Histone deacetylase 1 (Homo sapiens, UniProt Q13547); experiment: Inhibition of HDAC1 (unknown origin) using RHKK(Ac) as substrate incubated for 30 mins by fluorescence based assay
[5] = biological target: Lysine-specific histone demethylase 1A (Homo sapiens, UniProt O60341); experiment: Inhibition of LSD1 (unknown origin) using diMeK4H31-21 as substrate preincubated for 5 mins followed by substrate addition measured for 5 mins by absorbance based assay
[6] = biological target: T2, Protein deacetylase HDAC6 (Homo sapiens, UniProt Q9UBN7); experiment: Inhibition of recombinant human HDAC6 expressed in baculovirus infected Hi-5 insect cells using Boc-Lys (epsilon-acetyl)-AMC as substrate incubated for 3 to 24 hrs by fluorescence based assay
T2 sequence (Q9UBN7 whole entry): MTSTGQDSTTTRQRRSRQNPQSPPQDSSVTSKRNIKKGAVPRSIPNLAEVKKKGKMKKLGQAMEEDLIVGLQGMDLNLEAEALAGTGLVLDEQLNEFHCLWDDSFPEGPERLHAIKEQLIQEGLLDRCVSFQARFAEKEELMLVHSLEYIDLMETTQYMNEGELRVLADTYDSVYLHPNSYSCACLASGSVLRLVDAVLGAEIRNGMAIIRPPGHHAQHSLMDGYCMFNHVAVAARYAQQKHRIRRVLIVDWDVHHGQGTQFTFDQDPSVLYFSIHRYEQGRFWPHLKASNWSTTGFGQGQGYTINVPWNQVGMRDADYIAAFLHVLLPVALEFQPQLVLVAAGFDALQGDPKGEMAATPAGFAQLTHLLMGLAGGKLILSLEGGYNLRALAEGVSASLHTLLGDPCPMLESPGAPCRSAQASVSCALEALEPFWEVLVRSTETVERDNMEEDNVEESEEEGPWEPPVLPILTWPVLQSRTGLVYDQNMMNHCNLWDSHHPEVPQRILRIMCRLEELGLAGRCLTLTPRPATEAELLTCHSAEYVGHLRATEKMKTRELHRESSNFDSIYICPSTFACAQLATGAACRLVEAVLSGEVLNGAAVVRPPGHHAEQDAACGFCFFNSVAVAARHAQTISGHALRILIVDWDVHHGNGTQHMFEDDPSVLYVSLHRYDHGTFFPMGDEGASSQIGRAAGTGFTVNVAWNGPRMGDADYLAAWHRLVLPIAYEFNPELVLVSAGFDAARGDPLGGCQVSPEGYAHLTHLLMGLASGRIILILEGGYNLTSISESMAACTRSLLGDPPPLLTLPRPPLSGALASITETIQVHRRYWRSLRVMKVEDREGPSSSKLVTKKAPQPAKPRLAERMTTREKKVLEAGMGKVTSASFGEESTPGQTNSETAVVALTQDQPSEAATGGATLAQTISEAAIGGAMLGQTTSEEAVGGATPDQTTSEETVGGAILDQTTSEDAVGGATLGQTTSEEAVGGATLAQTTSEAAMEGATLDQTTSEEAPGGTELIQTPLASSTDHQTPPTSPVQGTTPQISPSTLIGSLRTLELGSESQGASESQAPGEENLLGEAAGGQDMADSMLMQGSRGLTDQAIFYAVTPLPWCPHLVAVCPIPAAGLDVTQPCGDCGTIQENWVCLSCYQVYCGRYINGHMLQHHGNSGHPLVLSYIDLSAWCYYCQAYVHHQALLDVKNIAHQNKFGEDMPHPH

SMMC-7721 = experiment: cells; assay type: functional, cell-based; details: Homo sapiens, SMMC-7721, 48 h
Histone deacetylase 1 [7] = biological target: T1, Histone deacetylase 1; experiment: Inhibition of recombinant human HDAC1 using Boc-Lys (Ac)-AMC as substrate incubated for 60 mins by fluorescence based assay
A549 [8] = experiment: Cytotoxicity against human A549 cells assessed as cell growth inhibition; assay type: functional, cell-based
Histone deacetylase 1 [9] = biological target: T1, Histone deacetylase 1; experiment: Inhibition of HDAC1 (unknown origin)
A-431 = experiment: Cytotoxicity against human A-431 cells assessed as cell growth inhibition; assay type: functional, cell-based
[10] = biological target: T2, Protein deacetylase HDAC6; experiment: Inhibition of HDAC6 (unknown origin)
NCI-H1975 = experiment: Cytotoxicity against human NCI-H1975 cells assessed as cell growth inhibition; assay type: functional, cell-based
[11] = biological target: Epidermal growth factor receptor (Homo sapiens, UniProt P00533); experiment: Inhibition of EGFR (unknown origin)
SK-BR-3 = experiment: Cytotoxicity against human SK-BR-3 cells assessed as cell growth inhibition; assay type: functional, cell-based
BT-474 = experiment: Cytotoxicity against human BT-474 cells assessed as cell growth inhibition; assay type: functional, cell-based
Vitamin D3 receptor = Vitamin D3 receptor (Homo sapiens, UniProt P11473); experiment: Displacement of fluorescent tracer from VDR (unknown origin) by fluorescence polarisation competition assay
MCF7 [12] = experiment: Cytotoxicity against human MCF7 cells assessed as cell growth inhibition by trypan blue dye based light microscopy; assay type: functional
Jurkat = experiment: Cytotoxicity against human Jurkat cells assessed as cell growth inhibition by trypan blue dye based light microscopy; assay type: functional
Histone deacetylase 1 [13] = biological target: T1, Histone deacetylase 1; experiment: Inhibition of recombinant human HDAC1 using fluorogenic substrate measured after 60 mins by fluorescence based assay
Histone deacetylase 1 [14] = biological target: T1, Histone deacetylase 1; experiment: Inhibition of HDAC1 (unknown origin) using Boc-Lys(Ac)-7-amino-4-methylcoumarin (BocLys(Ac)-AMC) as substrate incubated for 30 mins by fluorescence based assay
[15] = biological target: T2, Protein deacetylase HDAC6; experiment: Inhibition of HDAC6 (unknown origin) using Boc-Lys(Ac)-7-amino-4-methylcoumarin (BocLys(Ac)-AMC) as substrate incubated for 30 mins by fluorescence based assay
PC-3 = experiment: Antiproliferative activity against human PC-3 cells assessed as cell growth inhibition incubated for 72 hrs by CCK-8 assay; assay type: functional, cell-based; details: PC-3, 72 h
HeLa = experiment: Antiproliferative activity against human HeLa cells assessed as cell growth inhibition incubated for 72 hrs by CCK-8 assay; assay type: functional, cell-based
Histone deacetylase 2 = Histone deacetylase 2 (Homo sapiens, UniProt Q92769); experiment: Inhibition of recombinant human HDAC2 using HDAC substrate incubated for 30 mins by fluorescence based microplate reader analysis
[16] = biological target: T2, Protein deacetylase HDAC6; experiment: Inhibition of recombinant human HDAC6 using HDAC substrate incubated for 30 mins by fluorescence based microplate reader analysis
A549 [17] = experiment: Antiproliferative activity against human A549 cells assessed as cell growth inhibition incubated for 72 hrs by CCK-8 assay; assay type: functional, cell-based; details: A549, 72 h
Histone deacetylase 1 [18] = biological target: T1, Histone deacetylase 1; experiment: Inhibition of recombinant human HDAC1 using HDAC substrate incubated for 30 mins by fluorescence based microplate reader analysis
HepG2 = experiment: Antiproliferative activity against human HepG2 cells assessed as cell growth inhibition incubated for 72 hrs by CCK-8 assay; assay type: functional, cell-based; details: HepG2, 72 h
MCF7 [19] = experiment: Antiproliferative activity against human MCF7 cells assessed as cell growth inhibition incubated for 72 hrs by CCK-8 assay; assay type: functional, cell-based; details: MCF7, 72 h
Histone deacetylase 1 [20] = biological target: T1, Histone deacetylase 1; experiment: Inhibition of recombinant human HDAC1 using Boc-L-Lys (Ac)-AMC as substrate incubated for 35 mins by microplate reader analysis

T1 sequence (Q13547 whole entry): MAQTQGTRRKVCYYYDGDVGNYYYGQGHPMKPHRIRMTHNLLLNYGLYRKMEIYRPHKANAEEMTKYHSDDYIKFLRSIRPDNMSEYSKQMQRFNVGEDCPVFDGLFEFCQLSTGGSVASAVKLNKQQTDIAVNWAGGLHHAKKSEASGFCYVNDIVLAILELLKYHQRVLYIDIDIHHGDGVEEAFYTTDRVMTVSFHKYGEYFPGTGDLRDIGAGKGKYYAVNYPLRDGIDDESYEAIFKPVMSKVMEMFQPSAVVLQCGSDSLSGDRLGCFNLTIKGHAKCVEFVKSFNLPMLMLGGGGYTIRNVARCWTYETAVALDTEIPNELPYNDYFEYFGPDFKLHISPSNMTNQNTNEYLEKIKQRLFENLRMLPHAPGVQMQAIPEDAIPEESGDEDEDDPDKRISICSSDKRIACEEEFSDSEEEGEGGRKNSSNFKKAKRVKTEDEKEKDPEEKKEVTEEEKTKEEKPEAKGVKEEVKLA
Sequence of Epidermal growth factor receptor (P00533 whole entry): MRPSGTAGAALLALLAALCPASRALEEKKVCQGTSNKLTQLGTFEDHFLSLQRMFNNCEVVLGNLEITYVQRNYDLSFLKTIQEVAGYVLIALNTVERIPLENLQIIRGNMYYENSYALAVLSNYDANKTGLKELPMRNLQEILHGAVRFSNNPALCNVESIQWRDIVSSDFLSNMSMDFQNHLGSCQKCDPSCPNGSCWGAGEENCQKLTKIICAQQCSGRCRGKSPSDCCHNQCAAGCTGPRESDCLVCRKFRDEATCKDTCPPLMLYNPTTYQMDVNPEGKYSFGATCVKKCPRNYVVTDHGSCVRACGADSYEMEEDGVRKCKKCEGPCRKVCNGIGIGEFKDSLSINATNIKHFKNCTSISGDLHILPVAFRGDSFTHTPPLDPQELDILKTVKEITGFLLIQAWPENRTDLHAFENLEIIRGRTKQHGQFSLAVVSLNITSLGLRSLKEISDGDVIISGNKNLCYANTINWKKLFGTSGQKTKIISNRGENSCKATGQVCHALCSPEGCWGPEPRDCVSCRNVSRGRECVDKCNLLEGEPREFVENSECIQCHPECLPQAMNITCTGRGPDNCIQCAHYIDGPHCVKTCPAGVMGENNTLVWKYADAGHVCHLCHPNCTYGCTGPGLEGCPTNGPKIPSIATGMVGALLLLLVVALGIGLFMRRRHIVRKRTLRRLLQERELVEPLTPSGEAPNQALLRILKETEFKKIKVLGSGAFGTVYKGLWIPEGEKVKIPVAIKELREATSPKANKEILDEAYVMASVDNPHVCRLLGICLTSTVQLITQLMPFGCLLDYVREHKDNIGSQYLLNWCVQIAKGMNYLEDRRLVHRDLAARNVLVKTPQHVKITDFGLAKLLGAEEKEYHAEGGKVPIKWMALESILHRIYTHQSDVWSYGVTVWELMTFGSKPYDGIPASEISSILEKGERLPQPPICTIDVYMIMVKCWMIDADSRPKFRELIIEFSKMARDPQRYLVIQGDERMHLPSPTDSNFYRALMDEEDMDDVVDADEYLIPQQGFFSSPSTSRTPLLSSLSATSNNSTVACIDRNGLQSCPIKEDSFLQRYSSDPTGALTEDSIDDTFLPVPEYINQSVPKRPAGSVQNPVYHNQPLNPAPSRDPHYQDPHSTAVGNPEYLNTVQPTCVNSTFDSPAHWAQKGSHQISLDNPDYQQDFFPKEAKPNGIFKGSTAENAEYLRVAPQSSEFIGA
Sequence of Histone deacetylase 2 (Q92769 whole entry): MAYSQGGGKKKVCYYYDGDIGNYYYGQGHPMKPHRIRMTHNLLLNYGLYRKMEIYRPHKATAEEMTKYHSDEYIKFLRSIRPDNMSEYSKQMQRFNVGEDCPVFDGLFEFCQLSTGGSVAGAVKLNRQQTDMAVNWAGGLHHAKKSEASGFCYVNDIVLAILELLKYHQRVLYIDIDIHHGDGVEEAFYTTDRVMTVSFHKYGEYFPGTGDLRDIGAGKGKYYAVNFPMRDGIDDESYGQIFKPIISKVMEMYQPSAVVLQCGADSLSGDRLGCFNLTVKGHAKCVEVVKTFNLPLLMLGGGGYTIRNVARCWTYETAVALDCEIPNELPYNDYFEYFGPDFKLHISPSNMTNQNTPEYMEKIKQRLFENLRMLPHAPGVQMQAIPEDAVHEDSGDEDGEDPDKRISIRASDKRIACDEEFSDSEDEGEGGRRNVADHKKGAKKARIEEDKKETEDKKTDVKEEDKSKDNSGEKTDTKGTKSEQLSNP
Sequence of Androgen receptor (P15207 whole entry S389L): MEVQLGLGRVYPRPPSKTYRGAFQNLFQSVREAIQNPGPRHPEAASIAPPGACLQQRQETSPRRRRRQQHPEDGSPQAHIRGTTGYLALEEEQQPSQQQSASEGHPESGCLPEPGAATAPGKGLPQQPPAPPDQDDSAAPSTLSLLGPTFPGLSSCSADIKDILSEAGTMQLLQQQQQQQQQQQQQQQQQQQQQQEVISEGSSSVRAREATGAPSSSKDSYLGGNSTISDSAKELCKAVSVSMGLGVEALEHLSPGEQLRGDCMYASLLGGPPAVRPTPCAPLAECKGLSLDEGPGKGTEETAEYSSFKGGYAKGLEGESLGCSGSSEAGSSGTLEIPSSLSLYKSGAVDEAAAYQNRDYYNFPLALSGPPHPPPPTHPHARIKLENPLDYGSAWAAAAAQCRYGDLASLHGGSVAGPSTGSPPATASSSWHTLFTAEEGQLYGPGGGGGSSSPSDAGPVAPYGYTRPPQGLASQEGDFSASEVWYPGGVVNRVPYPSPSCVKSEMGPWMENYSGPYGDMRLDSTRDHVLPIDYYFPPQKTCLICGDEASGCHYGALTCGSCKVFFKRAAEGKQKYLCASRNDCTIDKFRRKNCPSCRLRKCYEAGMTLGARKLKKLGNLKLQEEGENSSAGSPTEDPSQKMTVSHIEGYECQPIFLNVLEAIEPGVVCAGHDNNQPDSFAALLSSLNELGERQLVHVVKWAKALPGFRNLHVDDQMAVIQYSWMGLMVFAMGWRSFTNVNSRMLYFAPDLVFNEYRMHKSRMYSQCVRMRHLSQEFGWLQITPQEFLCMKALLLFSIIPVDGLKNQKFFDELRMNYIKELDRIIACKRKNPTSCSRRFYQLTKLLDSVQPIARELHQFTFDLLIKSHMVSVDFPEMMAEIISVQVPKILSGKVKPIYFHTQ
Sequence of Vitamin D3 receptor (P11473 whole entry): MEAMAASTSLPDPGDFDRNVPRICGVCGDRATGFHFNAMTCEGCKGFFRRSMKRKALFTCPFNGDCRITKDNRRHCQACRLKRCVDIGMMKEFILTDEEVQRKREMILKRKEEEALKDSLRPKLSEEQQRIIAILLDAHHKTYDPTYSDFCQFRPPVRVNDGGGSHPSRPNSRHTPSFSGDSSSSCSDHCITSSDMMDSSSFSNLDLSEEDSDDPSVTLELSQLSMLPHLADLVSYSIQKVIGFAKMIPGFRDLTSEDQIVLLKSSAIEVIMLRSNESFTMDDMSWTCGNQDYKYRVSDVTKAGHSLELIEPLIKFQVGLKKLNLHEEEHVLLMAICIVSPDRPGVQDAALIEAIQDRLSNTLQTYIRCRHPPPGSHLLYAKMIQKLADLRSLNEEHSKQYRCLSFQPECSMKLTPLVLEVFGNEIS

Structure (SMILES): C=C(c1ccc(C(=O)NO)cc1)c1cc2c(cc1C)C(C)(C)CCC2(C)C
TGI (A549 [1]): 53%
IC50 (A549 [2]): 4.9 µM

Structure (SMILES): CC1(C)C(=O)N(c2ccc(C#N)c(C(F)(F)F)c2)C(=O)N1Cc1ccc(-c2cn(CCCCCCC(=O)NO)nn2)cc1
IC50 (LNCaP): 1.1 µM
IC50 (DU-145): 1 µM
IC50 (Androgen receptor): 0.69 µM

Structure (SMILES): Nc1ccccc1NC(=O)c1ccc(CCCC(=O)Nc2ccc(C3CC3N)cc2)cc1 (stereo unspecified)
Activity (SK-MEL-5): <=61%
IC50 [3]: 0.2 µM
IC50 (Histone deacetylase 1 [4]): 0.14 µM
IC50 [5]: 0.1 µM

Structure (SMILES): CC(C)=CCC/C(C)=C/CC/C(C)=C/CSc1ccccc1C(=O)NCCCCC(=O)NO
IC50 (SMMC-7721): 4.93 µM
IC50 (Histone deacetylase 1 [7]): 0.058 µM

Structure (SMILES): C=C1/C(=C\C=C2/CCC[C@@]3(C)[C@@H]2CC[C@H]3[C@@H](C)/C=C(C)/C=C/C(=O)NO)C[C@H](O)C[C@@H]1O
IC50 (Vitamin D3 receptor): 0.087 µM

Structure (SMILES): CCC(CC)(c1ccc(OCC(=O)NO)c(C)c1)c1ccc(OCC(O)C(C)(C)C)c(C)c1 (stereo unspecified)
IC50 (Histone deacetylase 1 [14]): 14.3 µM
IC50 [15]: 580 µM

The next lines start with results.

IC50 [6]: 2.77 µM
Structure (SMILES): COCCOc1cc2ncnc(Nc3ccc(/C=C/C(=O)NO)cc3)c2cc1OCCOC

IC50 (Histone deacetylase 1 [9]): 0.0011 µM
IC50 [10]: 0.0043 µM
IC50 [11]: 0.0103 µM
Structure (SMILES): O=C(CCCCCCN1CC(c2ccc3ncnc(Nc4ccc(Br)cc4F)c3c2)N=N1)NO (stereo unspecified)
IC50 (A549 [8]): 0.71 µM
IC50 (A-431): 0.26 µM
IC50 (NCI-H1975): 7.85 µM
IC50 (SK-BR-3): 10.9 µM
IC50 (BT-474): 5.13 µM

IC50 (Histone deacetylase 1 [13]): 2.2 µM
Structure (SMILES): O=C(CCn1cc(CCn2nc3c(Br)c(Br)c(Br)c(Br)c3n2)nn1)NO
IC50 (MCF7 [12]): 4.26 µM
IC50 (Jurkat): 2.87 µM

IC50 (PC-3): 4.9 µM
IC50 (HeLa): 1.1 µM
IC50 (Histone deacetylase 2): 0.041 µM
IC50 [16]: 0.021 µM
IC50 (A549 [17]): 2.1 µM
IC50 (Histone deacetylase 1 [18]): 0.029 µM
IC50 (HepG2): 2.3 µM
IC50 (MCF7 [19]): 0.3 µM
Structure (SMILES): C[C@H]1COc2c(N3CCN(C)CC3)c(F)cc3c(=O)c(C(=O)NCC4CN(CC(=O)NO)N=N4)cn1c23 (stereo partly specified)

IC50 (Histone deacetylase 1 [20]): 1.82 µM
IC50 [10]: 1.3 µM
Structure (SMILES): O=C(CCCCc1cn(-c2ccc(C(=O)c3c(-c4ccc(O)cc4)sc4cc(O)ccc34)cc2)nn1)NO
